According to BindingDB's records for doi:10.1016/j.bioorg.2014.05.010 (Ain Shams University, 2014):

Target: Vascular endothelial growth factor receptor 2 (Homo sapiens, UniProt P35968)
Assay: In vitro Inhibition Assay
Conditions: 30 °C
Protocol: Assays are performed for 15 min at 30 °C, with 50 µM of P33-ATP in a final volume of 25 µL. The assays are terminated by spotting 20 µL of the reaction mixture onto a phosphocellulose P81 plate. The P81 plate was washed 3 times for ~15 min each in a 1% phosphoric acid solution to remove excess unreacted P33-ATP.

Sequence of Vascular endothelial growth factor receptor 2 (P35968 whole entry): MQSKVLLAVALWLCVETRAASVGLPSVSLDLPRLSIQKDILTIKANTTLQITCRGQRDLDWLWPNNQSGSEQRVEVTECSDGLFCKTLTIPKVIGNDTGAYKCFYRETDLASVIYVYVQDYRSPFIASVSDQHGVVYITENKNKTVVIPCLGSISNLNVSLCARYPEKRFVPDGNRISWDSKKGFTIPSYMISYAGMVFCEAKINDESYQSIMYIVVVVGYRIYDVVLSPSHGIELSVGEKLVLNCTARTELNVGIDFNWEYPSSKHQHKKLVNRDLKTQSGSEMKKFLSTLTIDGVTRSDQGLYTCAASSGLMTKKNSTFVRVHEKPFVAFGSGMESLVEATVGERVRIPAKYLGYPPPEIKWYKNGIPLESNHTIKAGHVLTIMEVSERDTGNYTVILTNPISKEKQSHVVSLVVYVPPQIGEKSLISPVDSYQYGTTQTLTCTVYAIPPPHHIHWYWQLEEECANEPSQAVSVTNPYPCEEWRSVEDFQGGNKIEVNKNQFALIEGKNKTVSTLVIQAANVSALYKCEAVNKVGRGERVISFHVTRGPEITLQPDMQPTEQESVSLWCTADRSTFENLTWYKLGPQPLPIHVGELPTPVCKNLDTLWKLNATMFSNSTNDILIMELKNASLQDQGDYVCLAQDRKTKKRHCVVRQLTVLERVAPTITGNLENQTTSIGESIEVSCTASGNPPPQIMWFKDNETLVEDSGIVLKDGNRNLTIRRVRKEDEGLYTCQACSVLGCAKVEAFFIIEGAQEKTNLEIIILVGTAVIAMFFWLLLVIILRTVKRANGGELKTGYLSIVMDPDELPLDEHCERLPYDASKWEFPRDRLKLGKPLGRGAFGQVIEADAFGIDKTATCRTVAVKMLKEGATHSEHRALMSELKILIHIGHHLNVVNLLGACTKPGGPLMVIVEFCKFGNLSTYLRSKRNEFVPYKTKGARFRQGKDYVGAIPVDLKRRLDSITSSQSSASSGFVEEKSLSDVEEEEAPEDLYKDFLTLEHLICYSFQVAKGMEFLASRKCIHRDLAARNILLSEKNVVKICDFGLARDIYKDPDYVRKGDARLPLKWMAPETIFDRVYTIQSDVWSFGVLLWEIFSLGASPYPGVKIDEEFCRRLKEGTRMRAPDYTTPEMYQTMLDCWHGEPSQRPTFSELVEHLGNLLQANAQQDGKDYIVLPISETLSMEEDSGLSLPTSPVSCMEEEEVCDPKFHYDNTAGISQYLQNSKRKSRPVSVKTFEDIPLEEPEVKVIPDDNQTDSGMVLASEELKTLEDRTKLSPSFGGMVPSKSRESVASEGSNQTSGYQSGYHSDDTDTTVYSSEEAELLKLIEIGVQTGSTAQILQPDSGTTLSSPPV

| IC50 | SMILES |
| --- | --- |
| 10.3 µM | COc1ccc(Nc2nc3ccc(NC(=O)Nc4ccccc4)cc3[nH]c2=O)cc1 [1-(2-((4-Methoxyphenyl)amino)-3-oxo-3,4 dihydroquinoxalin-6-yl)-3-phenylurea (VIIa)] |
| 210 µM | COc1ccc(Nc2cnc3cc(NC(=O)Nc4cccc(C)c4)ccc3n2)cc1 [1-(2-((4-Methoxyphenyl)amino)quinoxalin-6-yl)-3-(m-tolyl) urea (XVIc)] |
| 85.4 µM | O=C(Nc1ccc(Nc2cnc3cc([N+](=O)[O-])ccc3n2)cc1)Nc1cccc(Cl)c1 [1-(3-Chlorophenyl)-3-(4-((6-nitroquinoxalin-2-yl)amino)-phenyl)urea (XXIb)] |
| 268 µM | O=C(Nc1ccccc1)Nc1ccc(Nc2cnc3cc([N+](=O)[O-])ccc3n2)cc1 [1-(4-((6-Nitroquinoxalin-2-yl)amino)phenyl)-3-phenylurea (XXIa)] |
| 61.8 µM | COc1ccc(Nc2nc3ccc(NC(=O)c4ccccc4C(=O)O)cc3[nH]c2=O)cc1 [2-((2-((4-Methoxyphenyl)amino)-3-oxo-3,4-dihydroquinoxalin-6-yl)carbamoyl)benzoic acid (IX)] |
